Laboratory results from patent publication US20230331690A1, “THC DERIVATIVES, ORAL DOSAGE FORMS COMPRISING SAME, USES THEREOF FOR TREATING DISEASES AND DISORDERS AND SYNTHESIS THEREOF” (BAR-ILAN UNIVERSITY, priority 2020, published 2023).
Values joined by “and” are separate entries in the source; they are usually repeats but may differ in a detail not shown here. Identical values can stand only once.

Test system: hind paw of mice
Experiment: Electronic Von-Frey mechanical sensitivity (withdrawal thresholds) after Paclitaxel-induced neuropathic pain
Assay type: in vivo
Conditions: for Withdrawal test, test 1 / Withdrawal test, test 4 / Withdrawal test, test 5 / Withdrawal test, test 2 / Withdrawal test, test 3 / Withdrawal test, test 6: per animal; for Withdrawal test, All group average: 8 mice; for Withdrawal test, Average: average per animal; for Withdrawal test, test 6: additional test
Protocol: Mechanical sensitivity was evaluated by measuring the changes in tactile sensitivity in the hind paw of mice, using an Electronic Von-Frey apparatus (EVF). Withdrawal thresholds were measured, using the EVF apparatus, first at baseline (time=0) and then following drug, in a few periods after administration, by applying an accurate force on specific areas of the skin and measuring the needed force for the mouse to lift its paw.
Paclitaxel was utilized for the stimulation of a chemotherapy-induced neuropathic pain. Paclitaxel is anti-cancer chemotherapy drug classified as a “plant alkaloid” and an “antimicrotubule agent”.
Mice were divided into three groups of 8 mice each, as follows: • (a) Group no. 1—Morphine as positive control; • (b) Group no. […] 3—synthetic THC derivative 9-Desmethyl THC.
A portion of Paclitaxel was administered to each mouse by i.p. injection, on days 1, 3, 5 and 7 from the beginning of the experiment. At day 8, withdrawal thresholds were measured first at baseline (time=0), thereafter each mouse received a single portion of a drug substance, at 5 mg/Kg body weight concentration, by oral gavage and measurements took place.
The first checking point was 1 hour after administration of each drug. For every mouse, its threshold for the pain perception in which it removes its hind paw after the stabbing of the Von-Frey hair has been checked. Needed force (in gram force units) was measured each time and was recorded for every checking. This test was repeated 5 times for each mouse consecutively.
This procedure was repeated for all the three groups. The next checking point was 3 hours after administration, where the last withdrawal thresholds measurements were performed on the next morning, on day 9, which was 24 hours after administration.
Morphine was utilized as a positive control where group no. 1 mice received morphine (dissolved in a saline solution (0.9%) and injected subcutaneously) as an analgesic agent, prior to the mechanical sensitivity tests.
The tests described in this example are complicated and depend on numerous factors. Accordingly, results above 10.0 gram force (marked with an asterisk) were not included in the evaluation of the experimental data. In cases of exceptional results, an additional test was performed mouse (test 6) in order to assure the exceptional result.

[1] = t = 1 h after 5 mg/Kg, * values excluded
[2] = t = 3 h after 5 mg/Kg, * values excluded
[3] = t = 24 h after 5 mg/Kg, * values excluded

**Q.** `[2H]C([2H])([2H])C1=C[C@H]2c3c(O)cc(CCCCC)cc3OC(C)(C)[C@@H]2CC1([2H])[2H]` [9-CD3-(8-D2)-THC] was tested. Which “Withdrawal test, test 1” value (t = 1 h after 5 mg/Kg single dose (oral gavage; morphine s.c.), * values >10.0 excluded from evaluation) did it give?
**A.** Its value is 4.7 gram force and 4.8 gram force and 6.0 gram force (2×) and 5.0 gram force and 4.5 gram force and 6.1 gram force and 7.1 gram force.

**Q.** And the “Withdrawal test, All group average” value (t = 1 h after 5 mg/Kg)?
**A.** The value was 5.68 gram force.

**Q.** What about the “Withdrawal test, Average” value (t = 1 h after 5 mg/Kg) of the same compound?
**A.** Its value is 4.54 gram force and 6.14 gram force and 6.76 gram force and 5.24 gram force and 5.64 gram force and 4.88 gram force and 6.16 gram force and 6.06 gram force.

**Q.** What about the “Withdrawal test, test 4” value (t = 1 h after 5 mg/Kg) of the same compound?
**A.** Its value is 4.3 gram force and 4.5 gram force and 5.9 gram force and 6.7 gram force and 7.1 gram force and 4.7 gram force and 5.3 gram force and 4.2 gram force.

**Q.** What about the “Withdrawal test, test 5” value (t = 1 h after 5 mg/Kg) of the same compound?
**A.** Its value is 5.4 gram force and 8.7 gram force and 7.7 gram force and 5.2 gram force and 4.3 gram force and 4.7 gram force and 4.5 gram force and 8.5 gram force.

**Q.** And the “Withdrawal test, test 2” value [1]?
**A.** The value was 4.1 gram force and 5.8 gram force and 6.5 gram force and 4.0 gram force and 4.8 gram force and 4.6 gram force and 8.9 gram force and 5.6 gram force.

**Q.** And the “Withdrawal test, test 3” value [1]?
**A.** The value was 4.2 gram force and 6.9 gram force and 7.7 gram force and 5.3 gram force and 7.5 gram force and 4.3 gram force and 6.1 gram force and 4.9 gram force.

**Q.** What about the “Withdrawal test, All group average” value (t = 3 h after 5 mg/Kg) of the same compound?
**A.** The value was 5.67 gram force.

**Q.** And the “Withdrawal test, Average” value (t = 3 h after 5 mg/Kg)?
**A.** The value was 5.16 gram force and 6.42 gram force and 4.72 gram force and 6.08 gram force (2×) and 5.64 gram force and 5.92 gram force and 5.30 gram force.

**Q.** And the “Withdrawal test, test 2” value (t = 3 h after 5 mg/Kg)?
**A.** Its value is 5.9 gram force and 5.4 gram force and 5.0 gram force and 5.1 gram force (2×) and 9.2 gram force and 7.2 gram force and 6.5 gram force.

**Q.** What about the “Withdrawal test, test 4” value (t = 3 h after 5 mg/Kg) of the same compound?
**A.** Its value is 4.7 gram force and 9.2 gram force and 4.3 gram force and 5.9 gram force and 6.2 gram force and 6.6 gram force and 5.2 gram force and 4.6 gram force.

**Q.** What about the “Withdrawal test, test 5” value (t = 3 h after 5 mg/Kg) of the same compound?
**A.** Its value is 5.8 gram force and 6.7 gram force and 4.0 gram force (2×) and 6.4 gram force and 4.5 gram force and 4.8 gram force and 5.3 gram force.

**Q.** What about the “Withdrawal test, test 6” value (t = 3 h after 5 mg/Kg) of the same compound?
**A.** Its value is 4.1 gram force and 4.9 gram force (2×) and 4.3 gram force.

**Q.** And the “Withdrawal test, test 1” value [2]?
**A.** The value was 4.6 gram force and 4.4 gram force (2×) and 4.7 gram force and 6.9 gram force and 8.2 gram force and 7.6 gram force and 4.5 gram force.

**Q.** And the “Withdrawal test, test 3” value [2]?
**A.** Its value is 4.8 gram force and 6.4 gram force and 5.6 gram force (3×) and *12.8 gram force and 4.7 gram force and 4.9 gram force.

**Q.** And the “Withdrawal test, All group average” value (t = 24 h after 5 mg/Kg)?
**A.** Its value is 5.28 gram force.

**Q.** And the “Withdrawal test, Average” value (t = 24 h after 5 mg/Kg)?
**A.** Its value is 4.70 gram force and 5.96 gram force and 4.56 gram force and 6.33 gram force and 4.98 gram force and 5.32 gram force and 4.80 gram force and 5.56 gram force.

**Q.** And the “Withdrawal test, Change from b.l.” value (t = 24 h after 5 mg/Kg, group average vs baseline)?
**A.** The value was −2.6%.

**Q.** And the “Withdrawal test, test 1” value (t = 24 h after 5 mg/Kg)?
**A.** The value was 6.0 gram force and 7.5 gram force and 4.0 gram force and 7.6 gram force and 5.0 gram force and 4.4 gram force and 4.9 gram force and 4.5 gram force.

**Q.** And the “Withdrawal test, test 2” value (t = 24 h after 5 mg/Kg)?
**A.** The value was 4.6 gram force and 6.0 gram force and 4.0 gram force and 7.5 gram force and 6.5 gram force and 5.3 gram force and 5.7 gram force and 5.0 gram force.

**Q.** And the “Withdrawal test, test 3” value (t = 24 h after 5 mg/Kg)?
**A.** Its value is 4.6 gram force and 4.2 gram force and 4.0 gram force (2×) and 5.6 gram force and 5.4 gram force and 5.3 gram force and 6.8 gram force.

**Q.** And the “Withdrawal test, test 6” value (t = 24 h after 5 mg/Kg)?
**A.** The value was 4.5 gram force.

**Q.** What about the “Withdrawal test, test 4” value [3] of the same compound?
**A.** The value was 4.3 gram force (2×) and 4.0 gram force and 6.8 gram force (2×) and *10.3 gram force and 4.1 gram force and 5.2 gram force.

**Q.** And the “Withdrawal test, test 5” value [3]?
**A.** Its value is 4.0 gram force (3×) and 8.1 gram force and 4.6 gram force and 5.1 gram force and 4.7 gram force and 6.3 gram force.
